We go through two compounds from PMC6670186, “Novel prodrugs of decitabine with greater metabolic stability and less toxicity” (Clinical Epigenetics, 2019).

Marks after values point to notes of the source that are not given here. Some results are limits rather than exact numbers.

The subject of data set [1] is exogenous UCHL1 promoter and OSR2 promoter CpG island. Kind of data set: Quantitative methylation-specific PCR of marker genes. In kind it is cell-based, Human. To be noted: qMSP; for DNA demethylation after pulse exposure: HML58-3 cells, 1.0 μM for 1 h; for DNA demethylation of exogenous UCHL1 promoter and OSR2 promoter CpG island: 0.0 to 10.0 μM. How it is done: One microgram of EcoRV-digested genomic DNA was treated with sodium bisulfite as described previously. Bisulfite-treated DNA was resuspended in 40 μL of TE-buffer (10 mM Tris, pH 8.0; 1 mM EDTA, pH 8.0), and 1 μL was used for quantitative methylation-specific PCR (qMSP) using primers specific to methylated and unmethylated target loci, including MetLuc-UCHL1 promoter, OSR2 promoter, and UCHL1 promoter (Additional file 1: Table S1). As a fully unmethylated DNA control, genomic DNA from peripheral blood cells of a healthy person was amplified twice using a GenomiPhi DNA amplification kit (GE Healthcare Life Sciences; Little Chalfont, UK). As a fully methylated DNA control, the fully unmethylated DNA was methylated by SssI methylase (New England Biolabs; Beverly, MA).

Data set [2] relates to RKO cells. Kind of data set: Cell growth inhibition, RKO. In kind it is cell-based, Human. How it is done: (§1) Cells were seeded at a density of 1 × 10^3 to 5 × 10^3 cells/well in a 96-well microplate or 1 × 10^4 to 5 × 10^4 cells/well in a six-well microplate on day 0 in triplicate, followed by treatment with drugs on day 1. The cell growth of HCT116 was estimated using IncuCyte (Essen BioScience, K.K.; Tokyo, Japan) for 94 h. The cell viability of SW480, HT29, and TMK1 was evaluated using a WST-8 [2-(2-methoxy-4-nitrophenyl)-3-(4-nitrophenyl)-5-(2, 4-disulfophenyl)-2H tetrazolium, monosodium salt] assay (Nacalai Tesque Inc., Kyoto, Japan). The numbers of cells of RKO, breast cancer cell lines, sarcoma cell lines, and neuroblastoma cell lines were counted using a microscope. The half-maximum inhibitory concentration (IC50) was obtained using the non-linear regression analysis of log (inhibitor) versus the normalized response with a variable slope using the GraphPad Prism software (GraphPad Software; La Jolla, CA).

The subject of data set [3] is HML58-3 cells. Kind of data set: Genome-wide DNA methylation analysis (Infinium MethylationEPIC). To be noted: 1 μM. In kind it is cell-based, Human. The procedure:
Genome-wide DNA methylation analysis was performed using an Infinium Human MethylationEPIC BeadChip (Infinium EPIC; Illumina; Sam Diego, CA) as described previously. The BeadArray assessed the degree of methylation of 862,927 CpG probes as beta-values that ranged from 0 (unmethylated) to 1 (fully methylated). To reduce the data size and obtain data that were easy to handle, the CpG probes were grouped into 548,546 genomic blocks (GBs), which consisted of probes within 500 bp.

A short description of data set [4]: Adverse effects in xenograft-bearing nude mice (body weight, blood count, biochemical tests). The format is in vivo. To be noted: for WBC count and liver function: doses equimolar to that of DAC. How it is done:
(§2) HCT116 cells (5.0 × 10^6 cells per mouse) were subcutaneously injected into the inguinal region of 6-week-old female nude mice (n = 81) (BALB/c-nu/nu; CLEA Japan, Tokyo, Japan). Once tumors reached an average volume of 80 mm^3, mice bearing xenograft tumors were randomly divided into nine groups and treated intraperitoneally with vehicle (5% DMSO in 10% 2-hydroxypropyl-β-cyclodextrin solution), DAC, OR-2003, or OR-2100. The length and width of tumors were measured with standard calipers twice per week, and tumor volumes were calculated using the formula tumor volume = (length × width^2) × 0.5. Body weight was measured twice per week. […] The remaining mice were categorized as group 1 and continuously treated with drugs. At 29 days after the treatment, tumors, major organs, bone marrow, and blood serum were collected from six mice and blood count and biochemical tests were performed. The mice were maintained under standard conditions according to the institutional guidelines for animal care.

The subject of data set [5] is SFRP1 and UCHL1. Description: RT-qPCR of tumor-suppressor genes after pulse exposure. To be noted: HML58-3 cells, 1.0 μM for 1 h. The format is cell-based, Human. The procedure: Complementary DNA (cDNA) was synthesized from DNase-treated total RNA (1 μg) using oligo-(dT) 20 (Thermo Fisher Scientific; Waltham, MA) and SuperScript IV Reverse Transcriptase (Thermo Fisher Scientific). The number of cDNA molecules was quantified using qRT-PCR. The primer sequences and PCR conditions are shown in Additional file 1: Table S1. The copy number of each sample was calculated by comparing the amplification curve with those of standard DNA samples with known copy number. The number of target cDNA molecules was normalized to that of GAPDH cDNA molecules.

The target in data set [6] is T1, human recombinant cytidine deaminase (Homo sapiens, UniProt P32320).
T1 construct: His; purchased AT Gen Co. Ltd; Seoul, Korea
T1 sequence (P32320 whole entry): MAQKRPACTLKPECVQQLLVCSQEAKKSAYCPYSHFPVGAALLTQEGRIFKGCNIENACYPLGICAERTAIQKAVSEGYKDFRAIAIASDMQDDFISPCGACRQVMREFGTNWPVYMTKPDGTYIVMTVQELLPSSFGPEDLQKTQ
Description: Stability in the presence of cytidine deaminase. The format is in vitro ADME. From the text:
The remaining of the starting derivatives were continuously assayed using HPLC analytical conditions as described above.

Data set [7] concerns HCT116 cells. Kind of data set: Cell growth inhibition, HCT116. In kind it is cell-based, Human. The procedure: as §1
The test system of data set [8] is HCT116 xenografts. Description: Xenograft tumor formation assay in nude mice. In kind it is in vivo. To be noted: for DNA demethylation of two promoters in xenograft tumors: group 2 mice; for tumor growth (tumor volume): intraperitoneal, twice per week. How it is done: as §2
Data set [9] deals with TMK1 cells. Kind of data set: Cell viability (WST-8), TMK1. In kind it is cell-based. The procedure: as §1
(Tetrazolium assays rely on reduction of a dye to a coloured formazan, in cell work by metabolically active cells.)

Data set [10] is described as follows: Partition coefficient (log P), shake-flask method, n-octanol/PBS. The format is physicochemical. The procedure:
The method employed HPLC with the following conditions: ZORBAX Bonus C18 column (4.6 × 150 mm, 3 μm); eluent: A = 10 mM HCO2NH4, B = acetonitrile, A:B = 50:50 (an isocratic mode for 5 min), and A:B = 99:1–20:80 (a gradient mode for 15 min); flow rate = 1.0 mL/min; oven temperature = 40 °C; detection = 240 nm.

Data set [11] is described as follows: Pharmacokinetics in mice, intraperitoneal. The format is in vivo. To be noted: for AUC 0 → lim, DAC / AUC 0 → lim, Total / AUC 0 → lim, OR compound: plasma; for AUC 0 → lim, DAC: DAC (metabolite for OR compounds), equimolar dose; for AUC 0 → lim, Total: OR compound + metabolite DAC; for AUC 0 → lim, OR compound: dose equimolar to 0.20 mg/kg DAC. How it is done:
Six-week-old female ICR mice were intraperitoneally injected with 0.20 mg/kg of DAC, 0.29 mg/kg of OR-2003, 0.32 mg/kg of OR-2009, 0.30 mg/kg of OR-2100, and 0.31 mg/kg of OR-2102. The doses were decided so that equivalent amounts of molar concentration would be administered. The blood plasma was collected before and at 5, 15, 30, 45, 60, 90, and 120 min after the treatment. All experimental procedures were approved by the Committee of National Cancer Center.

The test system of data set [12] is HML58-3. Description: Expression microarray. The format is cell-based, Human. To be noted: 1 μM, 58,341 probes. How it is done:
Cy3-labeled cRNA was synthesized from 100 ng of total RNA using a Low Input Quick Amp Labeling Kit, One-Color (Agilent Technologies, Santa Clara, CA), and 600 ng of labeled cRNA was fragmented and hybridized to SurePrint G3 Human Gene Expression 8 x 60K v3 Microarray (Agilent Technologies). The hybridized microarray was scanned with an Agilent G2600D microarray scanner (Agilent Technologies). The scanned data were processed using Feature Extraction software (Agilent Technologies) and analyzed using GeneSpring software (Agilent Technologies). The 75th percentile of the signal intensity of all probes was normalized to be 0, and the genes with signal intensities of − 1 or more were regarded as showing positive expression.

A short description of data set [13]: Stability in phosphate-buffered saline. The format is physicochemical. To be noted: for Stability t1/2 in PBS: PBS 37 °C, 20** + x h, 20 h = t1/2 in PBS of DAC, x = OR compound; for t1/2 in PBS: PBS solution at 37°C. How it is done: Five microliters of DAC derivatives (1.0 mg/100 μL of DMSO) was added to 200 μL of a stirred PBS solution at 37 °C. The mixture was stirred continuously for 1 day. The remaining of the starting derivatives was assayed using the HPLC analytical conditions as described above.

In data set [14] the test system is HML58-3 cells. Description: Luciferase reporter assay for DNA demethylation. The format is cell-based, Human. To be noted: 0.1 and 1.0 μM for 1 h, analyzed on day 5. The procedure:
Cells were seeded at a density of 5 × 10^3 cells/well in a 96-well microplate on day 0 in triplicate, and 5 × 10^4 cells/well in a six-well plate on day 0. On day 1, the medium was replaced with a medium containing a specific concentration of a drug, which was freshly dissolved in DMSO and filtered through a 0.2-μ filter. On day 5, the supernatant from each well of the 96-well microplate was collected to measure luminescence. Luminescence was measured using the Ready-To-Glow^TM Secreted Luciferase Reporter Assay (Clontech; Mountain View, CA) and a multimode plate reader ARVO^TMMX (PerkinElmer Japan Co Ltd.; Kanagawa, Japan).

As for `CCC[Si](C)(C)OC[C@H]1O[C@@H](n2cnc(N)nc2=O)C[C@@H]1O` [OR-2003], in [1], the “DNA demethylation after pulse exposure” value was “stronger demethylation”; the “DNA demethylation of exogenous UCHL1 promoter and OSR2 promoter CpG island” value was “as strongly as DAC”. Half-maximal inhibition in data set [2] (IC50) was put at 40 nM. For the same compound, the “genome-wide DNA demethylation” value in data set [3] was “as strong DNA demethylation as DAC”. The “WBC count and liver function” value in data set [4] is reported as “no influence”. Further, the WBC count entry in data set [4] (highest dose 3.600 mg/kg) is “affected the WBC count”. In addition, the “expression level of SFRP1 and UCHL1 after pulse exposure” value in data set [5] is reported as “twice as high as that induced by DAC”. Besides, in data set [6], the “enzymatic stability in the presence of CDA” value was “stable in the presence of CDA”. The same compound registered an IC50 in data set [7] of 910 nM. Further, in data set [8], the “DNA demethylation of two promoters in xenograft tumors” value is “significant demethylation”; the “tumor growth (tumor volume)” value was “significant and dose-dependent inhibition of tumor growth”. Further, the tumor growth inhibition result in data set [8] (highest dose 3.600 mg/kg) is reported as “strongest effect”. Inhibition in data set [9] was half-maximal at 2840 nM (IC50). The “Log PO/PBS” value in data set [10] is given as 1.64. For the same compound, in data set [11], the “total AUC of OR compound and metabolite DAC compared with DAC” value is given as “larger AUCs than that of DAC”; the “AUC 0 → lim, DAC” value turned out to be 0.338 µM·h; the “AUC 0 → lim, Total” value came to 0.643 µM·h; the “AUC 0 → lim, OR compound” value came out at 0.305 µM·h. Further, the Cmax entry in [11] (comparison among four OR compounds) was “highest Cmax”. Besides, the “number of genes upregulated more than twofold and to − 1.0 log2 value” in data set [12] is reported as 2060. Moreover, in data set [13], the “half-life (time to release DAC)” value is recorded as 1 h, the “Stability t1/2 in PBS” value was 20** + 1 h and the “t1/2 in PBS” value turned out to be 1.0 h.

`CC[Si](CC)(CC)OC[C@H]1O[C@@H](n2cnc(N)nc2=O)C[C@@H]1O` [OR-2100]: in data set [1], the “DNA demethylation after pulse exposure” value is reported as “stronger demethylation”; the “DNA demethylation of exogenous UCHL1 promoter and OSR2 promoter CpG island” value is “slightly lower demethylation”. For the same compound, the IC50 in data set [2] stood at 60 nM. For the same compound, the “genome-wide DNA demethylation” value in [3] was “as strong DNA demethylation as DAC”. Moreover, the “luciferase activity after pulse exposure” value in data set [14] is reported as “weaker than that of DAC”. The “WBC count and liver function” value in data set [4] was “no influence”. In data set [4] (high dose), the adverse effects entry is “no adverse effects”. The compound also displayed an IC50 in data set [7] of 1110 nM. In [8], the “DNA demethylation of two promoters in xenograft tumors” value is given as “significant demethylation”; the “tumor growth (tumor volume)” value is “significant and dose-dependent inhibition of tumor growth”. The compound further displayed an IC50 in data set [9] of 1410 nM. In data set [10], the “Log PO/PBS” value came out at 2.14. In [11], the “total AUC of OR compound and metabolite DAC compared with DAC” value was “larger AUCs than that of DAC”; the “AUC 0 → lim, DAC” value turned out to be 0.266 µM·h; the “AUC 0 → lim, Total” value is 0.434 µM·h; the “AUC 0 → lim, OR compound” value worked out at 0.168 µM·h. The “number of genes upregulated more than twofold and to − 1.0 log2 value” in [12] stood at 2041. Besides, in [13], the “half-life (time to release DAC)” value is recorded as at least 14 h, the “Stability t1/2 in PBS” value is listed as 20** + 16 h and the “t1/2 in PBS” value amounted to 16 h.

One may read the IC50 as the concentration needed to halve the response being measured. A lower IC50 goes with greater potency.
